Experimental data from ChEMBL document CHEMBL5143695, “Benzobis(imidazole) derivatives as STAT3 signal inhibitors with antitumor activity” (Bioorg Med Chem, 2022).
The source made the active and inactive calls. The calls are words filed in the database; no cut-off is given here.

Columns and labels:
HepG2 [1] = test: Induction of apoptosis in human HepG2 cells assessed as early apoptotic cells at 10 uM incubated for 48 hrs by Annexin V/PI staining based flow cytometry method (reference value: 3.31%); type: functional
[2] = Toxicity in BALB/c athymic nude mouse xenografted with human HepG2 cells assessed as effect on body weight at 20 to 40 mg/kg, ip administered daily for 24 days; type: organism-based; details: in vivo, 576 h, dose 20-40 mg/kg, time 24 day
HepG2 [3] = test: Induction of apoptosis in human HepG2 cells assessed as downregulation of cyclin D1 protein expression by Western blotting analysis; type: functional, cell-based; details: dose 2.5-20 µM, DDE = dose-dependent effect
[4] = target: Signal transducer and activator of transcription 3 (Homo sapiens) (UniProt P40763); test: Inhibition of STAT3 phosphorylation at Y705 residue in human HepG2 cells measured after 16 hrs by Western blotting analysis; type: cell-based; details: dose 2.5-20 µM, DDE = dose-dependent effect
ECa-109 cell line [5] = test: Induction of apoptosis in human EC109 cells assessed as early apoptotic cells at 20 uM incubated for 48 hrs by Annexin V/PI staining based flow cytometry method (reference value: 1.36%); type: functional
[6] = target: Signal transducer and activator of transcription 3 (Homo sapiens) (UniProt P40763); test: Inhibition of STAT3 dimerization in human HepG2 cells assessed as increase in STAT3 monomer expression at 5 to 10 uM incubated for 24 hrs by DSS crosslink assay; type: cell-based; details: dose 5-10 µM
ECa-109 cell line [7] = test: Induction of apoptosis in human EC109 cells assessed as necrotic cells at 10 uM incubated for 48 hrs by Annexin V/PI staining based flow cytometry method (reference value: 0.73%); type: functional
ECa-109 cell line [8] = test: Induction of apoptosis in human EC109 cells assessed as viable cells at 5 uM incubated for 48 hrs by Annexin V/PI staining based flow cytometry method (reference value: 91.7%); type: functional; details: read-out: Activity
ECa-109 cell line [9] = test: Induction of apoptosis in human EC109 cells assessed as downregulation of MCL-1 protein expression by Western blotting analysis; type: functional, cell-based; details: dose 2.5-20 µM, DDE = dose-dependent effect
HepG2 [10] = test: Antitumor activity against human HepG2 cells xenografted in BALB/c athymic nude mouse assessed as decrease in Ki67 expression level at 20 to 40 mg/kg, ip administered daily for 24 days; type: functional, organism-based; details: dose 20-40 mg/kg, time 24.0 day
ECa-109 cell line [11] = test: Induction of cell cycle arrest in human EC109 cells assessed as decrease in cells at S phase incubated for 24 hrs by flow cytometric analysis (reference value: 36.08%); type: functional; parameters: scale not given: the % may be the effect or the level left
[12] = target: Signal transducer and activator of transcription 3 (Homo sapiens) (UniProt P40763); test: Inhibition of STAT3 nuclear translocation in human HepG2 cells assessed as decrease in nuclear STAT3 level at 5 to 10 microM incubated overnight by immunofluorescence analysis; type: cell-based; details: dose 5-10 µM
[13] = Cytotoxicity against HEK-Blue IL-6 cells; type: toxicity, cell-based; details: human
HepG2 [14] = test: Induction of apoptosis in human HepG2 cells assessed as early apoptotic cells at 20 uM incubated for 48 hrs by Annexin V/PI staining based flow cytometry method (reference value: 3.31%); type: functional
[15] = target: Signal transducer and activator of transcription 3 (Homo sapiens) (UniProt P40763); test: Inhibition of IL-6 induced STAT3 phosphorylation at Tyr705 residue in human EC109 cells preincubated for 16 hrs followed by IL-6 stimulation for 30 mins by Western blot analysis; type: cell-based; details: dose 2.5-20 µM, DDE = dose-dependent effect
HepG2 [16] = test: Induction of apoptosis in human HepG2 cells assessed as viable cells at 5 uM incubated for 48 hrs by Annexin V/PI staining based flow cytometry method (reference value: 92.5%); type: functional; details: read-out: Activity
HepG2 [17] = test: Antitumor activity against human HepG2 cells xenografted in BALB/c athymic nude mouse assessed as tumor growth inhibition at 40 mg/kg, ip administered daily for 24 days relative to control; type: functional; details: HepG2, 576 h, time 24 day, read-out: TGI
HepG2 [18] = test: Induction of apoptosis in human HepG2 cells assessed as late apoptotic cells at 5 uM incubated for 48 hrs by Annexin V/PI staining based flow cytometry method (reference value: 3.64%); type: functional

Chain of Signal transducer and activator of transcription 3 (Homo sapiens) (P40763 whole entry): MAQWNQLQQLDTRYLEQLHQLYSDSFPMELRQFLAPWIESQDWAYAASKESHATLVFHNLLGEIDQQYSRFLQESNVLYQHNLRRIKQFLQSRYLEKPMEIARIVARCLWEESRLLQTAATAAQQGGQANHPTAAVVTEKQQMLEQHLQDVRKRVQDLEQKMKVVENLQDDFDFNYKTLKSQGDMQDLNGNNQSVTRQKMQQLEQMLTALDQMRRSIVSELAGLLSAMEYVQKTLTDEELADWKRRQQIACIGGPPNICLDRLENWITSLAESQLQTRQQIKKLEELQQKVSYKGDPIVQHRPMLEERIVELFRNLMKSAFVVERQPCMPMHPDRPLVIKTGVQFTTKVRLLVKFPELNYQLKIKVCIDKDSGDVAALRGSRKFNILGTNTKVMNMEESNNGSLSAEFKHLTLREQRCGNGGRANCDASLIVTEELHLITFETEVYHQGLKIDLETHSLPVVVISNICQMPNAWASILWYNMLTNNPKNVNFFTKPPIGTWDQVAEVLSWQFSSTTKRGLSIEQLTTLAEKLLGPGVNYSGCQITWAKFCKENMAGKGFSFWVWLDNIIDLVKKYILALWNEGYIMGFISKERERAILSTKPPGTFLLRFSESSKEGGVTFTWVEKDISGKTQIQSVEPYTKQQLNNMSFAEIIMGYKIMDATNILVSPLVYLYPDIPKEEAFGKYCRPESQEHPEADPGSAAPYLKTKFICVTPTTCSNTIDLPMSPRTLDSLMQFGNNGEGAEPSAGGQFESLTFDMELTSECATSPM

inhibition [4]: Dde | inhibition [6]: Active | inhibition [12]: Active | inhibition [15]: Dde
Structure (SMILES): CCCn1c(-c2cccc(OC)c2)nc2cc3nc(-c4cccc(OC)c4)n(CCC)c3cc21
Activity (HepG2 [1]): 19.7% | Activity [2]: Non-Toxic | Activity (HepG2 [3]): Dde | Activity (ECa-109 cell line [5]): 18.2% | Activity (ECa-109 cell line [7]): 1.1% | viability at 5 µM (ECa-109 cell line [8]): 85.8% | Activity (ECa-109 cell line [9]): Dde | Activity (HepG2 [10]): Active | Activity (ECa-109 cell line [11]): 28.53% | IC50 [13]: > 10 µM | Activity (HepG2 [14]): 29.9% | viability at 5 µM (HepG2 [16]): 76.6% | inhibition in vivo at 40 mg/kg (HepG2 [17]): 47.3% | Activity (HepG2 [18]): 13.4%
